Where a name gives a salt, the structure may show the parent alone.
What was measured:
[1] = Intra-renal delivery of fenoldopam, renal artery blood flow; type: in vivo, human; details: intra-renal delivery at about 0.1 and about 0.2 mcg/kg/min
Method: At the time of the procedure, a switch to local delivery can easily be made with the previously described bifurcated catheter. […] Therefore another titration (in this situation most frequently migrating upward) is performed according to further embodiments, starting at the systemic dose, and moving towards a tolerated local dose, for the duration of the intended catheterization. Post-procedure, if the specialized bifurcated catheter is preferably to be removed, then the administration could be returned to a systemic dose, with or without additional hydration concurrently.

[2] = system: hypovolemic dogs receiving contrast; details: cited from earlier work
contrast nephropathy = details: cited from earlier work
[3] = cited from earlier work
[4] = systemic regimens; nausea and vomiting, flushing, hypotension, tachycardia, hypokalemia, ST/T-wave changes, dizziness, dyspnea; cited from earlier work
[5] = Local renal papaverine, renal blood flow in human subjects; type: in vivo; details: local renal doses of about 2 mg/min and about 3 mg/min

| SMILES | renal artery blood flow [1] | renal blood flow and renal function (glomerular filtration rate) [2] | efficacy in preventing contrast nephropathy, 0.2 vs 0.1 mcg/kg/min (contrast nephropathy; 0.2 mcg/kg/min compared with 0.1 mcg/kg/min) | benefit over saline (CONTRAST trial) (contrast nephropathy; 300 patients, 0.05-0.1 mcg/kg/min systemic IV over 12 hours) | renal function in high-risk patients undergoing contrast procedures (contrast nephropathy; small studies incl. randomized, double blind, placebo-controlled trial, 0.05-0.5 mcg/kg/min for 4-6 hours, started prior to contrast) | increase in renal blood flow from baseline ([3]; normal volunteers, 0.1 mcg/kg/min) | increment in renal blood flow ([3]; patients with a mean serum creatinine of 2.6 mg/dL, 0.1 mcg/kg/min) [%] | renal vasodilation ([3]; systemic doses as low as approximately 0.01 through approximately 0.5 mcg/kg/min IV) | frequency of common side effects other than headache [4] [%] | renal blood flow rates [5] |
| --- | --- | --- | --- | --- | --- | --- | --- | --- | --- | --- |
| Oc1ccc(C2CNCCc3c2cc(O)c(O)c3Cl)cc1 (stereo not shown) [fenoldopam, fenoldopam mesylate] | significant and immediate increases in renal artery blood flow | prevented reduction in both renal blood flow and renal function | greater efficacy | no benefit | attenuated worsening of renal function | approximately 40% | 16 | dose-dependent renal vasodilation | ≤ 5 |  |
| COc1ccc(Cc2nccc3cc(OC)c(OC)cc23)cc1OC [papaverine] |  |  |  |  |  |  |  |  |  | increase renal blood flow rates |
